Test results: PubChem BioAssay (NCI)
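96-well plates; 48 h exposure; 5 concentrations. Endpoints by linear interpolation between flanking doses. Not reached: highest tested concentration assigned. At the GI50, growth is halved. TGI is the concentration that stops growth completely.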

Tests used:
Assay in all cases: inhibition of tumour cell growth, NCI panel, 48 h
A498 renal = test system: A498 renal
HL-60(TB) leukemia = test system: HL-60(TB) leukemia
HOP-62 NSCLC = test system: HOP-62 NSCLC
MDA-MB-435 = test system: MDA-MB-435
NCI-H522 lung = test system: NCI-H522 lung
OVCAR-3 ovarian = test system: OVCAR-3 ovarian
SF-295 CNS = test system: SF-295 CNS
SK-MEL-28 melanoma = test system: SK-MEL-28 melanoma
SNB-75 CNS = test system: SNB-75 CNS
U251 CNS = test system: U251 CNS

SMILES	GI50 (A498 renal) [µM]	TGI (A498 renal) [µM]	GI50 (HL-60(TB) leukemia) [µM]	TGI (HL-60(TB) leukemia) [µM]	GI50 (HOP-62 NSCLC) [µM]	TGI (HOP-62 NSCLC) [µM]	GI50 (MDA-MB-435) [µM]	TGI (MDA-MB-435) [µM]	GI50 (NCI-H522 lung) [µM]	TGI (NCI-H522 lung) [µM]	GI50 (OVCAR-3 ovarian) [µM]	TGI (OVCAR-3 ovarian) [µM]	GI50 (SF-295 CNS) [µM]	TGI (SF-295 CNS) [µM]	GI50 (SK-MEL-28 melanoma) [µM]	TGI (SK-MEL-28 melanoma) [µM]	GI50 (SNB-75 CNS) [µM]	TGI (SNB-75 CNS) [µM]	GI50 (U251 CNS) [µM]	TGI (U251 CNS) [µM]
Cc1ccccc1NC(=O)N/C(N)=N/c1nc(-c2cccc([N+](=O)[O-])c2)cs1	2.39	7.69	3.56	> 100	1.92	7.47	0.505	4.51	1.79	> 100	1.72	4.41	1.53	3.62	2.55	> 100	1.28	3.62	2.76	10.5
CC(C)=CCCC(C)c1ccc(C)c2c1OCN(CC1CCNCC1)C2 (centres undefined)	12.3	26	3.9	18.9	14.8	28.7	6.48	20.9	13.5	28.6	15.6	31.1	15.9	34.9	15.7	29.3	11.9	24.3	2.75	7.61
CCN1CCN(C(=O)[C@]23CC[C@@H](C)[C@H](C)[C@@H]2C2=CC[C@@H]4[C@@]5(C)C/C(=C/c6ccncc6)C(=O)C(C)(C)[C@@H]5CC[C@@]4(C)[C@]2(C)CC3)CC1	1.49	2.9	1.9	4.9	2.37	5.75	1.62	3.24			1.56	2.94	1.55	2.88	1.65	3.03	1.27	2.67	1.72	3.38
CCOC(=O)Nc1nc2ccc(Cn3cccc3)cc2[nH]1		41.6		13.4		> 67.1		0.731		2.1		6.3		20		> 100		2.11		> 64.8
CCN(CC)CC(O)CNc1ccc(NCC2CO2)c2c1C(=O)c1ccccc1C2=O (centres undefined)		11.6	0.00216		0.297	4.02	0.133	0.394	0.958	2.41	0.299	2.69		4.6	0.631	3.5		4.29	0.373	19.6
NOCC(=O)O	> 100	> 100	32.2	> 100	> 100	> 100	> 100	> 100	25.9	> 100	> 100	> 100	> 100	> 100	> 100	> 100	> 100	> 100	> 100	> 100
C=C1C(=O)O[C@H]2[C@H]1CC/C(CNC(=O)c1cc3cc(OC)ccc3[nH]1)=C\CC[C@@]1(C)O[C@@H]21	1.93	8.64	1.97	6.37	3.22	13.8	1.73	5.03	0.7	2.55	1.21	2.57	4.89	18.7	1.62	4.23	1.9	13.1	3.35	12.6
COc1ccc(CN(C)c2ccc(CO)c(Cl)c2)cc1	0.0416	0.178	17.7	64.8	7.58	> 100	24.2	95.4	22.4	> 80.7	2.93	12.8	3.35	> 100	24.6	> 100	23.5	> 90.7	4.05	> 87.3
O=C1c2ccccc2C(=O)N1CCCSc1ccccc1		> 100		> 100		> 100		> 100		> 100		> 100		> 100		> 100		> 100		> 100
COc1cc(C(=O)/C(C)=C/c2c[nH]c3ccccc23)cc(OC)c1OC	0.0025	0.00916	0.00228	0.00652	0.00541	11.9	0.00232	0.00633	0.00282	0.00728	0.00334	0.0107	0.00298	1.61	0.0175		0.00334	16.1	0.00436	10.6
CC(=O)CC(=O)Nc1ccc2ccccc2c1		> 100		> 100		> 100		> 100		> 100		> 100		> 100		> 100		> 100		> 100
ClCc1cccc(Cn2cnc3c(NC45CC6CC(CC(C6)C4)C5)ncnc32)c1	15.4	31.7	1.24	26.6	20.5	37.5	13.4	29.8	17.4	39.2	17.6	35.9	15.9	33.3	25	> 78.7	17.4	43.1	14.8	30.8
COc1ccc([N+](=O)[O-])c2c(NCCCN(C)C)c3ccccc3nc12		0.0733		3.8		0.399		1.17		0.145		0.442		0.693		13.4		0.802		2.05
COc1cc(OC)cc(C2CC(=O)Nc3c2c(C)nn3-c2nc3ccccc3[nH]2)c1 (centres undefined)	2.11	4.69	2.34	7.37	2.65	6.62	2.76	7.88	2.08	5.58	2.3	5.02	1.58	3.85	3.64	70	3.47	9.65	2.99	9.57
CC(=O)Nc1ccc(C(=O)NN2C(=O)C(Cl)C2c2ccc(Cl)cc2)cc1 (centres undefined)				> 100		57.8		> 100		> 100		52.3		44.7		> 100		30.9		> 56.7
O=[N+]([O-])c1cc(Cl)c(Cl)c([N+](=O)[O-])c1Cl	6.4	20.9	0.439	2.92	1.82	3.25	1.7	3.46			1.69	3.07	1.99	4.4	1.74	3.14	1.47	2.81	1.03	2.61
Cn1c([N+](=O)[O-])cnc1/C=C1\Oc2ccccc2C1=O			0.28	1.5	1.07	4.42	0.175	0.395	0.552	2.26	0.527	5.21	1.65	6.19	0.43	3.36	1.51	4.87	1.19	4.05
Cc1cc(C)c([O-])c(CN(C)CCN(C)Cc2cc(C)cc(C)c2[O-])c1.O=C([O-])c1cccc(C(=O)[O-])n1.[Ti+4]	3.72	> 100	1.69	5.56	2.92	8.47	2.89	> 100	2.08	5.47			2.57	> 100	2.42	8.37	1.67	5.65	2.92	> 100
COc1cc(/C=C/C(=O)CC(=O)/C=C/c2cc(OC)c(OC)c(OC)c2)cc(OC)c1OC	10.4	42.9	5.15	> 100	4.45	27.7	2.52	7.23	1.9	3.78	2.34	5.91	3.16	17.2	4.24	32.8	3.89	50.5		
O=c1c2c(nc3n1CCS3)[nH]c1ccccc12	89.5	> 100			> 100	> 100	> 100	> 100	> 100	> 100	95.4	> 100	> 100	> 100	90.3	> 100	30.5	> 100	> 100	> 100
CCN(CC)CCC(=O)NC1c2ccc(Cl)cc2Oc2c(C)cccc21 (centres undefined)				41.2				28.3		31.6		28.8		33.9		27.9		22.5		
